Where two headings read alike, the source gives them in different places.
Tests used:
[1] = system: polio vaccine virus Type I (PVI); type: cell-based
P388 mouse leukemia cell = test: in vitro P388 mouse leukemia cell assay; type: cell-based; details: 50% inhibition of cell replication vs untreated cultures
Procedure: Antitumor effectiveness of the compounds of the invention was evaluated using a standardized in vitro P388 mouse leukemia cell assay protocol disclosed in U.S. Pat. No. 4,731,366 with the antitumor activity being expressed in IC50 (concentration that results in 50% inhibition of cell replication normalized to untreated cultures) determined with a log-log transform of data and expressed as xx ng/ml. As an example, for mycalamide A the P388 assay value was […]

HSV = type: cell-based, Herpes simplex type 1 virus
P338 tumor = test: in vivo P388 tumor procedure in mice (% T/C)
Procedure: (§1) Antitumor effectiveness of mycalamide A was also evaluated using a standardized in vivo procedure by injecting mice with the test material starting 24 hours after P338 tumor implantation. A T/C value is calculated using the formula % T/C=Median survival of test group/Median survival of control group×100%, A T/C value above 130% is considered significant.

A59 = system: A59; design: species or system mice; details: mouse, in vivo, 0.1 mg/kg
mice = details: mouse, in vivo
B16 murine melanoma = test: in vivo B16 murine melanoma assay
Procedure: as §1
In vivo antitumor activity of mycalamide A was also tested with an B16 murine melanoma assay resulting in the following data: […]

antimitotic activity = details: British Pat. Nos. 1,078,049 and 932,875; cited from earlier work

In the case of C=C1CC(OC)(C(O)C(=O)NC2OCOC3C2OC(CC(O)CO[Si](C)(C)C(C)(C)C)C(C)(C)C3OC)OC(C)C1C (stereo not drawn) [Example 16, Mycalamide A 18-mono-t-butyl,dimethylsilylether], the “AV assay, cytotoxicity” value (BSC cells) is reported as “-”, the “AV assay, PVI” value [1] is reported as 4+ and - and the “P388 IC50” value (P388 mouse leukemia cell) is reported as 28.5 ng/mL. For the same compound, the “AV assay, HSV” value (HSV) was 4+ and -.
In the case of COC1C2OCOC(NC(=O)C(O)C3(OC)CC4(CO4)C(C)C(C)O3)C2OC(CC(O)CO)C1(C)C (stereo not drawn) [Example 4, Mycalamide A 4β-epoxide], the “P388 IC50” value (P388 mouse leukemia cell) is reported as 14.9 ng/mL and the “AV assay, HSV” value (HSV) is reported as 4+.
For COC1C2OCOC(NC(=O)C(O)C3(OC)CC(C)C(C)C(C)O3)C2OC(CC(O)CO)C1(C)C (stereo not drawn) [Example 22, 4β-dihydro mycalamide A], the “AV assay, cytotoxicity” value (BSC cells) was “-” and the “P388 IC50” value (P388 mouse leukemia cell) was 0.8 ng·mL.
With C=C1CC(OC)(C(OC(=O)c2ccc(Br)cc2)C(=O)NC2OCOC3C2OC(CC(O)CO)C(C)(C)C3OC)OC(C)C1C (stereo not drawn) [Example 10, Mycalamide A 7-mono-p-bromobenzoate] the “AV assay, PVI” value [1] was 4+, the “P388 IC50” value (P388 mouse leukemia cell) was 23.3 ng/mL and the “AV assay, HSV” value (HSV) was 4+.
With C=C1CC(O)(C(O)C(=O)NC2OCOC3C2OC(CC(O)CO)C(C)(C)C3OC)OC(C)C1C (stereo not drawn) [Example 28, Pseudomycalamide A] the “AV assay, PVI” value [1] was 4+, the “P388 IC50” value (P388 mouse leukemia cell) was 23 ng/mL and the “AV assay, HSV” value (HSV) was 4+.
In the case of COC(CO)CC1OC2C(NC(=O)C(O)C3(O)CC(C)C(C)C(C)O3)OCOC2C(OC)C1(C)C (stereo not drawn) [Example 26, 4α Dihydro pseudomycalamide B], the “AV assay, cytotoxicity” value (BSC cells) is reported as “-”, the “AV assay, PVI” value [1] is reported as 4+ and - and the “P388 IC50” value (P388 mouse leukemia cell) is reported as 3 ng/mL. For the same compound, the “AV assay, HSV” value (HSV) was 4+ and -.
In the case of C=C1C[C@](OC)([C@H](O)C(=O)N[C@H]2OCO[C@H]3[C@@H]2O[C@H](C[C@H](O)CO)C(C)(C)[C@@H]3OC)O[C@H](C)[C@@H]1C [mycalamide A, Mycalamide A], the “Median T/C %” value (P338 tumor; 0.0012 mg/kg, 2nd series) is reported as 117%, the “Median T/C %” value (P338 tumor; 0.0025 mg/kg, 1st series) is reported as 137% and the “Median T/C %” value (P338 tumor; 0.0025 mg/kg, 2nd series) is reported as 122%. The “Median T/C %” value (P338 tumor; 0.005 mg/kg, 1st series) was 132%, the “Median T/C %” value (P338 tumor; 0.005 mg/kg, 2nd series) was 133% and the “Median T/C %” value (P338 tumor; 0.01 mg/kg, 1st series) was 116%. The “Median T/C %” value (P338 tumor; 0.01 mg/kg, 2nd series) was 156%, the “Median T/C %” value (P338 tumor; 0.02 mg/kg, 1st series) was “Toxic” and the “Median T/C %” value (P338 tumor; 0.02 mg/kg, 2nd series) was 106%. For the same compound, the Cumulative mortality (A59) was 0%, the “P388 IC50” value (P388 mouse leukemia cell) was 1.6 ng/mL and the Cumulative mortality (mice; 0.01 mg/kg, 48 h) was 0%. It also gave a Cumulative mortality (mice; 0.01 mg/kg, 96 h) of 0%, a Cumulative mortality (mice; 0.01 mg/kg, 144 h) of 0% and a Cumulative mortality (mice; 0.01 mg/kg, 192 h) of 0%. The Cumulative mortality (mice; 0.01 mg/kg, 240 h) was 0%, the Cumulative mortality (mice; 0.01 mg/kg, 288 h) was 0% and the Cumulative mortality (mice; 0.01 mg/kg, 336 h) was 0%. For the same compound, the Cumulative mortality (mice; 0.1 mg/kg, 48 h) was 0%, the Cumulative mortality (mice; 0.1 mg/kg, 96 h) was 0% and the Cumulative mortality (mice; 0.1 mg/kg, 144 h) was 0%. The Cumulative mortality (mice; 0.1 mg/kg, 192 h) was 0%, the Cumulative mortality (mice; 0.1 mg/kg, 240 h) was 0% and the Cumulative mortality (mice; 0.1 mg/kg, 288 h) was 0%. For the same compound, the Cumulative mortality (mice; 0.1 mg/kg, 336 h) was 0%, the Cumulative mortality (mice; 1 mg/kg, 48 h) was 0% and the Cumulative mortality (mice; 1 mg/kg, 96 h) was 0%. For the same compound, the Cumulative mortality (mice; 1 mg/kg, 144 h) was 100%, the Cumulative mortality (mice; 1 mg/kg, 192 h) was 100% and the Cumulative mortality (mice; 1 mg/kg, 240 h) was 100%. For the same compound, the Cumulative mortality (mice; 1 mg/kg, 288 h) was 100%, the Cumulative mortality (mice; 1 mg/kg, 336 h) was 100% and the Cures (B16 murine melanoma; 0.0625 mg/kg) was 0. The “Median T/C %” value (B16 murine melanoma; 0.0625 mg/kg) was 197%, the Cures (B16 murine melanoma; 0.125 mg/kg) was 0 and the “Median T/C %” value (B16 murine melanoma; 0.125 mg/kg) was 189%. For the same compound, the Cures (B16 murine melanoma; 0.5 mg/kg) was 0 and the “Median T/C %” value (B16 murine melanoma; 0.5 mg/kg) was “Toxic”.
For COC1C2OCOC(NC(=O)C(O)C3(OC)CC4(CO4)C(C)C(C)O3)C2OC(CC(O)CO)C1(C)C (stereo not drawn) [Example 3, Mycalamide A 4 γ-epoxide], the “P388 IC50” value (P388 mouse leukemia cell) was 34 ng/mL.
With COC1C2OCOC(NC(=O)C(O)C3(OC)CC(C)C(C)C(C)O3)C2OC(CC(O)CO)C1(C)C (stereo not drawn) [Example 19, 4α-Dihydro mycalamide A] the “P388 IC50” value (P388 mouse leukemia cell) was 2.3 ng/mL and the “AV assay, HSV” value (HSV) was 4+ and -.
For C=C1C[C@](OC)([C@H](O)C(=O)N[C@@H](OC)[C@@H]2C[C@@H](O)C(C)(C)[C@@H](C[C@@H](COC)OC)O2)O[C@H](C)[C@@H]1C [Pederin, pederin], the antimitotic activity (antimitotic activity) is listed as “shows antimitotic activity”.
In the case of C=C1CC(OC)(C(OC(C)=O)C(=O)NC2OCOC3C2OC(CC(COC(C)=O)OC(C)=O)C(C)(C)C3OC)OC(C)C1C (stereo not drawn) [Example 7, Mycalamide A Triacetate], the “AV assay, cytotoxicity” value (BSC cells) is reported as “-” and the “P388 IC50” value (P388 mouse leukemia cell) is reported as 51.9 ng/mL.
For C=C1CC(O)(C(O)C(=O)NC2OCOC3C2OC(CC(CO)OC)C(C)(C)C3OC)OC(C)C1C (stereo not drawn) [Example 27, Pseudomycalamide B], the “AV assay, cytotoxicity” value (BSC cells) was “-”, the “AV assay, PVI” value [1] was 4+ and - and the “P388 IC50” value (P388 mouse leukemia cell) was 1.8 ng/mL. The “AV assay, HSV” value (HSV) was 4+ and -.
With C=C1CC(OC)(C(OC(C)=O)C(=O)NC2OCOC3C2OC(CC(COC(C)=O)OC)C(C)(C)C3OC)OC(C)C1C (stereo not drawn) [Example 9, Mycalamide B Diacetate] the “AV assay, cytotoxicity” value (BSC cells) was “-”, the “AV assay, PVI” value [1] was 4+ and - and the “P388 IC50” value (P388 mouse leukemia cell) was 15.3 ng/mL. For the same compound, the “AV assay, HSV” value (HSV) was 4+ and -.
In the case of COC1C2OCOC(NC(=O)C(OC(=O)c3ccc(Br)cc3)=C3C=C(C)C(C)C(C)O3)C2OC(CC(O)COC(=O)c2ccc(Br)cc2)C1(C)C (single isomer, unassigned) [Example 13, Neomycalamide A 7,18-di-p-bromobenzoate], the “AV assay, cytotoxicity” value (BSC cells) is reported as “-”, the “AV assay, PVI” value [1] is reported as 4+ and - and the “P388 IC50” value (P388 mouse leukemia cell) is reported as 572.5 ng/mL. The “AV assay, HSV” value (HSV) was 4+ and -.
With C=C1CC(OC)(C(O[Si](C)(C)C)C(=O)NC2OCOC3C2OC(CC(CO[Si](C)(C)C)O[Si](C)(C)C)C(C)(C)C3OC)OC(C)C1C (stereo not drawn) [Example 15, Mycalamide A tris-trimethylsilylether] the “AV assay, cytotoxicity” value (BSC cells) was “-”, the “AV assay, PVI” value [1] was 4+ and - and the “P388 IC50” value (P388 mouse leukemia cell) was 1.3 ng/mL. For the same compound, the “AV assay, HSV” value (HSV) was 4+ and -.
With C=C1CC(OC)(C(OC(=O)CC)C(=O)NC2OCOC3C2OC(CC(COC(=O)CC)OC(=O)CC)C(C)(C)C3OC)OC(C)C1C (stereo not drawn) [Example 8, Mycalamide A Tripropanoate] the “AV assay, cytotoxicity” value (BSC cells) was “-”, the “AV assay, PVI” value [1] was 4+ and - and the “P388 IC50” value (P388 mouse leukemia cell) was 85.6 ng/mL.
For COC1C2OCOC(NC(=O)C(O)C3(O)CC(C)C(C)C(C)O3)C2OC(CC(O)CO)C1(C)C (stereo not drawn) [Example 20, 4α-dihydro pseudomycalamide A], the “P388 IC50” value (P388 mouse leukemia cell) was 10.5 ng/mL and the “AV assay, HSV” value (HSV) was 4+.
For C=C1C[C@](OC)([C@H](O)C(=O)N[C@H]2OCO[C@H]3[C@@H]2O[C@H](C[C@@H](CO)OC)C(C)(C)[C@@H]3OC)O[C@H](C)[C@@H]1C [Example 2, Mycalamide B], the “AV assay, cytotoxicity” value (BSC cells) was “-”, the “AV assay, PVI” value [1] was 4+ and - and the “P388 IC50” value (P388 mouse leukemia cell) was 0.26 ng/mL. The “AV assay, HSV” value (HSV) was 4+ and -.
In the case of C=C1CC(OC)(C(OC(=O)c2ccc(Br)cc2)C(=O)NC2OCOC3C2OC(CC(O)COC(=O)c2ccc(Br)cc2)C(C)(C)C3OC)OC(C)C1C (stereo not drawn) [Example 12, Mycalamide A 7,18-di-p-bromobenzoate], the “AV assay, PVI” value [1] is reported as 4+ and the “P388 IC50” value (P388 mouse leukemia cell) is reported as 141.2 ng/mL.
In the case of C=C1CC(OC)(C(O)C(=O)NC2OCOC3C2OC(CC(CO[Si](C)(C)C)O[Si](C)(C)C)C(C)(C)C3OC)OC(C)C1C (stereo not drawn) [Example 14, Mycalamide A 17,18-bis-trimethylsilylether], the “AV assay, PVI” value [1] is reported as 4+, the “P388 IC50” value (P388 mouse leukemia cell) is reported as 1.2 ng/mL and the “AV assay, HSV” value (HSV) is reported as 4+.
In the case of C=C1CC(OC)(C(O[Si](C)(C)C)C(=O)NC2OCOC3C2OC(CC(CO[Si](C)(C)C)OC)C(C)(C)C3OC)OC(C)C1C (stereo not drawn) [Example 18, Mycalamide B bis-trimethylsilylether], the “P388 IC50” value (P388 mouse leukemia cell) is reported as 0.19 ng/mL.
In the case of COC(CO)CC1OC2C(NC(=O)C(O)C3(OC)CC(C)C(C)C(C)O3)OCOC2C(OC)C1(C)C (stereo not drawn) [Example 24, 4β-Dihydro mycalamide B], the “AV assay, PVI” value [1] is reported as 4+ and the “P388 IC50” value (P388 mouse leukemia cell) is reported as 0.14 ng/mL.
With C=C1CC(OC)(C(O)C(=O)NC2OCOC3C2OC(CC(CO[Si](C)(C)C)OC)C(C)(C)C3OC)OC(C)C1C (stereo not drawn) [Example 17, Mycalamide B 18-mono-trimethylsilylether] the “AV assay, cytotoxicity” value (BSC cells) was “-”, the “AV assay, PVI” value [1] was 4+ and - and the “P388 IC50” value (P388 mouse leukemia cell) was 0.08 ng/mL. For the same compound, the “AV assay, HSV” value (HSV) was 4+ and -.
With COC1C2OCOC(NC(=O)C(O)C3(O)CC(C)C(C)C(C)O3)C2OC(CC(O)CO)C1(C)C (stereo not drawn) [Example 23, 4β-dihydro pseudomycalamide A] the “AV assay, PVI” value [1] was 4+, the “P388 IC50” value (P388 mouse leukemia cell) was 4.2 ng/mL and the “AV assay, HSV” value (HSV) was 4+.
In the case of C=C1CC(OC)(C(O)C(=O)NC2OCOC3C2OC(CC(O)COC(=O)c2ccc(Br)cc2)C(C)(C)C3OC)OC(C)C1C (stereo not drawn) [Example 11, Mycalamide A 18-mono-p-bromobenzoate], the “AV assay, cytotoxicity” value (BSC cells) is reported as “-”, the “AV assay, PVI” value [1] is reported as 4+ and - and the “P388 IC50” value (P388 mouse leukemia cell) is reported as 1.28 ng/mL.

Reference: patent publication US4868204A, “Mycalamide compounds, compositions thereof and methods of preparation and use” (Harbor Branch Oceanographic Institution, Inc., priority 1988, dated 1989)
